This passage reports IC50 results from ChEMBL document CHEMBL1155594, “Absolute configuration and antiprotozoal activity of minquartynoic acid” (J Nat Prod, 2000).

One assay concerns Leishmania major. Briefly: Antileishmanial activity against Leishmania major promastigotes after 20 hrs. The format is functional, organism-based.
Another assay has as its system Plasmodium falciparum. Put plainly: Antiplasmodial activity against chloroquine-sensitive Plasmodium falciparum 3D7. The assay is classed as functional, organism-based.
Assay [1] is described as follows: Inhibition of phytohemagglutininin A-induced proliferation in human lymphocytes assessed as radiolabeled thymidine uptake. The format is cell-based. Particulars: Lymphocyte.

The structures appear in SMILES notation. Values after ≈ are worked out from the molar mass of the structure shown.

As a reminder, the IC50 is the midpoint of a concentration-inhibition curve. In the case of `C[C@H](O)C#CC#CC#CC#CCCCCCCCC(=O)O` [MINQUARTYNOIC ACID], the IC50 turned out to be 1.4 µg/mL (≈ 4.92 µM) with Leishmania major, 3 µg/mL (≈ 10.6 µM) in the assay with Plasmodium falciparum and 5.3 µg/mL (≈ 18.6 µM) in assay [1].
